The results in this text go back to ChEMBL document CHEMBL1140333, “Structure-based design, synthesis, and biological evaluation of inhibitors of Mycobacterium tuberculosis type II dehydroquinase” (J Med Chem, 2005).

The target in this experiment is T1, 3-dehydroquinate dehydratase (Mycobacterium tuberculosis, UniProt P9WPX7).
T1 sequence (P9WPX7 whole entry): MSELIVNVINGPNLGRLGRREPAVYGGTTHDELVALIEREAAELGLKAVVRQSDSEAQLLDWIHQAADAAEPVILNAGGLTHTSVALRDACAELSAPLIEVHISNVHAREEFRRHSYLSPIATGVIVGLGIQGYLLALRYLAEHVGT
As to the kind of experiment: Inhibition of Mycobacterium tuberculosis type II dehydroquinase at 25 degree C pH 8.2.

As usually defined, the Ki is the equilibrium dissociation constant of an inhibitor or competing ligand from its target. On to `O=C(O)[C@]1(O)C/C(=N\O)[C@@H](O)[C@H](O)C1`, for which the Ki turned out to be 20000 nM. This counts as double-digit micromolar.
Then `O=C(O)[C@]1(O)C=C(c2cccnc2)[C@@H](O)[C@H](O)C1`, with 45000 nM; and `O=C(O)[C@]1(O)C=C(c2cccc(F)c2)[C@@H](O)[C@H](O)C1`, with 1500 nM.
As for `O=C(O)c1cccc(C2=C[C@@](O)(C(=O)O)C[C@@H](O)[C@@H]2O)c1`, the figure is 150000 nM; as for `O=C(O)[C@]1(O)C=C(c2cccc(C(F)(F)F)c2)[C@@H](O)[C@H](O)C1`, 2120 nM.
The compound `O=C(O)[C@]1(O)C=C(c2ccsc2)[C@@H](O)[C@H](O)C1` displayed an inhibition constant Ki of 590 nM.
The compound `O=C(O)[C@]1(O)C=C(F)[C@@H](O)[C@H](O)C1` showed an inhibition constant (Ki) of 10000 nM.
As for `O=C(O)[C@]1(O)C=C(c2ccc(F)cc2)[C@@H](O)[C@H](O)C1`, the figure is 1800 nM; as for `O=C(O)[C@]1(O)C=C(c2cccc(O)c2)[C@@H](O)[C@H](O)C1`, 95000 nM; as for `O=C(O)[C@]1(O)C=C(c2ccoc2)[C@@H](O)[C@H](O)C1`, 830 nM.
`O=C(O)[C@]1(O)C=C(c2cccc([N+](=O)[O-])c2)[C@@H](O)[C@H](O)C1` gave a Ki of 54 nM.
As for `O=C(O)[C@]1(O)C=C(c2ccccc2)[C@@H](O)[C@H](O)C1`, the figure is 1500 nM; as for `O=C(O)[C@]1(O)C=C(c2ccc(C(F)(F)F)cc2)[C@@H](O)[C@H](O)C1`, 17000 nM.
Then `O=C(O)[C@]1(O)C=C(c2cc(F)cc(F)c2)[C@@H](O)[C@H](O)C1`, with 2440 nM.
